# Test results published in ChEMBL document CHEMBL1201861, “Genomics of Drug Sensitity in Cancer screening data, Wellcome Trust Sanger Institute”.
# Legend:
# COR-L279 = assay: SANGER: Inhibition of human COR-L279 cell growth in a cell viability assay.; type: functional, cell-based
# Capan-2 = assay: cells; type: functional, cell-based; conditions: Homo sapiens;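 also: Capan-2 cell growth inhibition, read out with a viability assay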
# Description: SANGER: Inhibition of human Capan-2 cell growth in a cell viability assay.
# ChaGo-K-1 = assay: cells; type: functional, cell-based; conditions: Homo sapiens;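 also: growth inhibition of ChaGo-K-1 cells, read out with a cell viability assay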
# Description: SANGER: Inhibition of human ChaGo-K-1 cell growth in a cell viability assay.
# D-336MG = assay: cells; type: functional, cell-based; conditions: Homo sapiens
# Description: SANGER: Inhibition of human D-336MG cell growth in a cell viability assay.
# Daudi = assay: cells; type: functional, cell-based; conditions: Homo sapiens;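 also: growth inhibition of Daudi cells, read out by a viability assay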
# Description: SANGER: Inhibition of human Daudi cell growth in a cell viability assay.
# DoTc2-4510 = assay: cells; type: functional, cell-based; conditions: Homo sapiens
# FaDu = assay: cells; type: functional, cell-based; conditions: Homo sapiens;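 also: cell viability readout of growth inhibition in FaDu cells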
# Description: SANGER: Inhibition of human FADU cell growth in a cell viability assay.
# G-361 = assay: cells; type: functional, cell-based; conditions: Homo sapiens
# GAMG = assay: cells; type: functional, cell-based; conditions: Homo sapiens;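 also: cell growth inhibition measured by a viability assay in the GAMG human cell line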
# Description: SANGER: Inhibition of human GAMG cell growth in a cell viability assay.
# H4 = assay: cells; type: functional, cell-based; conditions: Homo sapiens
# Description: SANGER: Inhibition of human H4 cell growth in a cell viability assay.
# HCC1806 = assay: cells; type: functional, cell-based; conditions: Homo sapiens;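 also: growth inhibition of the cancer cell line, determined with a cell viability assay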
# Description: SANGER: Inhibition of human HCC1806 cell growth in a cell viability assay.
# HCC38 = assay: cells; type: functional, cell-based; conditions: Homo sapiens;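 also: cell viability assay on the human HCC38 cell line, with IC50 marking the concentration that inhibits cell growth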
# Description: SANGER: Inhibition of human HCC38 cell growth in a cell viability assay.
# HSC-2 = assay: cells; type: functional, cell-based; conditions: Homo sapiens;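 also: growth inhibition of human HSC-2 cells, read out by a cell viability assay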
# Description: SANGER: Inhibition of human HSC-2 cell growth in a cell viability assay.
# HT1197 = assay: cells; type: functional, cell-based, HT-1197; conditions: Homo sapiens
# Description: SANGER: Inhibition of human HT-1197 cell growth in a cell viability assay.
# HT-29 = assay: cells; type: functional, cell-based; conditions: Homo sapiens;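 also: growth inhibition of human HT-29 cells, read out by a cell viability assay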
# Description: SANGER: Inhibition of human HT-29 cell growth in a cell viability assay.
# Huh-7 = assay: cells; type: functional, cell-based; conditions: Homo sapiens;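 also: HuH-7 cell growth inhibition, read out with a cell viability assay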
# Description: SANGER: Inhibition of human HuH-7 cell growth in a cell viability assay.
# HuO9 = assay: cells; type: functional, cell-based; conditions: Homo sapiens;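 also: growth inhibition of HuO9 cells, read out with a cell viability assay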
# Description: SANGER: Inhibition of human HuO9 cell growth in a cell viability assay.
# IST-SL2 = assay: cells; type: functional, cell-based; conditions: Homo sapiens;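 also: growth inhibition of human IST-SL2 cells, read out by a cell viability assay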
# Description: SANGER: Inhibition of human IST-SL2 cell growth in a cell viability assay.
# KYSE-180 = assay: cells; type: functional, cell-based; conditions: Homo sapiens;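 also: growth inhibition of KYSE-180 cells, read out with a cell viability assay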
# Description: SANGER: Inhibition of human KYSE-180 cell growth in a cell viability assay.
# LC-1F = assay: cells; type: functional, cell-based; conditions: Homo sapiens;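 also: growth inhibition of human LC-1F cells, read out with a cell viability assay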
# Description: SANGER: Inhibition of human LC-1F cell growth in a cell viability assay.
# LCLC-103H cell line = assay: cells; type: functional, cell-based; conditions: Homo sapiens
# Description: SANGER: Inhibition of human LCLC-103H cell growth in a cell viability assay.
# LoVo = assay: cells; type: functional, cell-based; conditions: Homo sapiens;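 also: growth inhibition of human LoVo cells, read out with a cell viability assay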
# Description: SANGER: Inhibition of human LoVo cell growth in a cell viability assay.
# M14 = assay: cells; type: functional, cell-based; conditions: Homo sapiens;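 also: growth inhibition of M14 cells, read out with a cell viability assay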
# Description: SANGER: Inhibition of human M14 cell growth in a cell viability assay.
# MDA-MB-175-VII = assay: cells; type: functional, cell-based; conditions: Homo sapiens
# MEL-JUSO = assay: cells; type: functional, cell-based; conditions: Homo sapiens;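 also: growth inhibition of human MEL-JUSO cells, read out with a cell viability assay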
# Description: SANGER: Inhibition of human MEL-JUSO cell growth in a cell viability assay.
# MKN-28 = assay: cells; type: functional, cell-based; conditions: Homo sapiens;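 also: cell viability assay read-out, IC50 reflects suppression of growth of human MKN-28 cells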
# Description: SANGER: Inhibition of human MKN28 cell growth in a cell viability assay.
# MKN-7 = assay: cells; type: functional, cell-based; conditions: Homo sapiens;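 also: growth inhibition of MKN-7 cells, read out with a cell viability assay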
# Description: SANGER: Inhibition of human MKN7 cell growth in a cell viability assay.
# NB1 = assay: cells; type: functional, cell-based; conditions: Homo sapiens;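 also: reduction of NB1 cell proliferation, read out with a viability assay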
# Description: SANGER: Inhibition of human NB1 cell growth in a cell viability assay.
# NCI-H1417 = assay: cells; type: functional, cell-based; conditions: Homo sapiens;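 also: human NCI-H1417 cells, growth inhibition determined with a cell viability readout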
# Description: SANGER: Inhibition of human NCI-H1417 cell growth in a cell viability assay.
# NCI-H1755 = assay: cells; type: functional, cell-based; conditions: Homo sapiens;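 also: cell viability readout used to measure growth inhibition of NCI-H1755 cells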
# Description: SANGER: Inhibition of human NCI-H1755 cell growth in a cell viability assay.
# NCI-H1793 = assay: cells; type: functional, cell-based; conditions: Homo sapiens;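 also: cell growth inhibition, read out by a cell viability assay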
# Description: SANGER: Inhibition of human NCI-H1793 cell growth in a cell viability assay.
# NCI-H2141 = assay: cells; type: functional, cell-based; conditions: Homo sapiens;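 also: growth inhibition of human NCI-H2141 cells, read out with a cell viability assay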
# Description: SANGER: Inhibition of human NCI-H2141 cell growth in a cell viability assay.
# NCI-H322M = assay: cells; type: functional, cell-based; conditions: Homo sapiens;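 also: cell viability assay measuring inhibition of growth of human NCI-H322M cells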
# Description: SANGER: Inhibition of human NCI-H322M cell growth in a cell viability assay.
# NCI-H441 = assay: cells; type: functional, cell-based; conditions: Homo sapiens;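 also: growth inhibition of NCI-H441 cells, read out with a cell viability assay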
# Description: SANGER: Inhibition of human NCI-H441 cell growth in a cell viability assay.
# NUGC-3 = assay: cells; type: functional, cell-based; conditions: Homo sapiens;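 also: growth inhibition of human NUGC-3 cells, read out with a cell viability assay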
# Description: SANGER: Inhibition of human NUGC-3 cell growth in a cell viability assay.
# OPM-2 = assay: cells; type: functional, cell-based; conditions: Homo sapiens;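 also: growth of OPM-2 cells measured with a viability assay, IC50 for suppression of proliferation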
# Description: SANGER: Inhibition of human OPM-2 cell growth in a cell viability assay.
# Panc1005 = assay: cells; type: functional, cell-based; conditions: Homo sapiens;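 also: growth inhibition of human PANC-10-05 cells, measured by a cell viability assay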
# Description: SANGER: Inhibition of human PANC-10-05 cell growth in a cell viability assay.
# PC-3 = assay: cells; type: functional, cell-based; conditions: Homo sapiens;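 also: cell viability assay measuring growth inhibition of PC-3 cells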
# Description: SANGER: Inhibition of human PC-3 cell growth in a cell viability assay.
# PFSK-1 = assay: cells; type: functional, cell-based; conditions: Homo sapiens;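 also: cell viability assay measuring how strongly compounds suppress growth of human PFSK-1 cells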
# Description: SANGER: Inhibition of human PFSK-1 cell growth in a cell viability assay.
# RT-112 = assay: cells; type: functional, cell-based; conditions: Homo sapiens
# Description: SANGER: Inhibition of human RT-112 cell growth in a cell viability assay.
# Raji = assay: cells; type: functional, cell-based; conditions: Homo sapiens;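 also: cell viability assay measuring inhibition of Raji cell growth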
# Description: SANGER: Inhibition of human Raji cell growth in a cell viability assay.
# SAS = assay: cells; type: functional, cell-based; conditions: Homo sapiens;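 also: growth inhibition of SAS cells, read out with a cell viability assay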
# Description: SANGER: Inhibition of human SAS cell growth in a cell viability assay.
# SCC-9 = assay: cells; type: functional, cell-based; conditions: Homo sapiens;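 also: Read-out is a cell viability assay, with values giving inhibition of cell growth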
# Description: SANGER: Inhibition of human SCC-9 cell growth in a cell viability assay.
# SK-LU-1 = assay: cells; type: functional, cell-based; conditions: Homo sapiens;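 also: cell viability assay measuring growth inhibition of human SK-LU-1 cells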
# Description: SANGER: Inhibition of human SK-LU-1 cell growth in a cell viability assay.
# SK-MEL3 = assay: cells; type: functional, cell-based, SK-MEL-3; conditions: Homo sapiens;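 also: growth inhibition of human SK-MEL-3 cells, read out with a cell viability assay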
# Description: SANGER: Inhibition of human SK-MEL-3 cell growth in a cell viability assay.
# SR = assay: cells; type: functional, cell-based; conditions: Homo sapiens
# Description: SANGER: Inhibition of human SR cell growth in a cell viability assay.
# SW1783 = assay: cells; type: functional, cell-based; conditions: Homo sapiens
# Description: SANGER: Inhibition of human SW1783 cell growth in a cell viability assay.
# SW837 = assay: cells; type: functional, cell-based; conditions: Homo sapiens;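 also: growth inhibition of SW837 cells, determined with a cell viability assay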
# Description: SANGER: Inhibition of human SW837 cell growth in a cell viability assay.
# T47D = assay: cells; type: functional, cell-based; conditions: Homo sapiens;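 also: growth inhibition of human T47D cells, measured with a cell viability assay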
# Description: SANGER: Inhibition of human T47D cell growth in a cell viability assay.
# CWR22R = assay: cells; type: functional, cell-based; conditions: Homo sapiens, 22Rv1;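 also: growth inhibition of 22Rv1 cells, read out with a cell viability assay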
# Description: SANGER: Inhibition of human 22RV1 cell growth in a cell viability assay.
# 5637 = assay: cells; type: functional, cell-based; conditions: Homo sapiens
# Description: SANGER: Inhibition of human 5637 cell growth in a cell viability assay.
# A-431 = assay: cells; type: functional, cell-based; conditions: Homo sapiens;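 also: growth inhibition of A-431 cells, determined with a cell viability read-out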
# Description: SANGER: Inhibition of human A431 cell growth in a cell viability assay.
# A673 = assay: cells; type: functional, cell-based; conditions: Homo sapiens;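 also: growth inhibition of human A673 cells, read out through a cell viability assay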
# Description: SANGER: Inhibition of human A673 cell growth in a cell viability assay.
# ACHN = assay: cells; type: functional, cell-based; conditions: Homo sapiens;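 also: cell viability read-out used to gauge how strongly growth of human ACHN cells is suppressed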
# Description: SANGER: Inhibition of human ACHN cell growth in a cell viability assay.
# ASPC1 = assay: cells; type: functional, cell-based; conditions: Homo sapiens;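 also: growth inhibition of AsPC-1 cells, read out with a cell viability assay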
# Description: SANGER: Inhibition of human AsPC-1 cell growth in a cell viability assay.
# BCPAP = assay: cells; type: functional, cell-based; conditions: Homo sapiens;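 also: growth inhibition of BCPAP cells, read out in a cell viability assay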
# Description: SANGER: Inhibition of human BCPAP cell growth in a cell viability assay.
# BHT-101 = assay: cells; type: functional, cell-based; conditions: Homo sapiens
# Description: SANGER: Inhibition of human BHT-101 cell growth in a cell viability assay.
# C-33-A = assay: cells; type: functional, cell-based; conditions: Homo sapiens;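 also: cell viability assay measuring growth inhibition of C-33-A cells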
# Description: SANGER: Inhibition of human C-33-A cell growth in a cell viability assay.
# C3A = assay: cells; type: functional, cell-based; conditions: Homo sapiens;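 also: growth inhibition of C3A human cells, quantified with a cell viability readout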
# Description: SANGER: Inhibition of human C3A cell growth in a cell viability assay.
# CAL-148 = assay: cells; type: functional, cell-based; conditions: Homo sapiens
# Description: SANGER: Inhibition of human CAL-148 cell growth in a cell viability assay.
# CAL-33 = assay: cells; type: functional, cell-based; conditions: Homo sapiens;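 also: growth inhibition of CAL-33 cells, read out with a cell viability assay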
# Description: SANGER: Inhibition of human CAL-33 cell growth in a cell viability assay.
# TGW = assay: cells; type: functional, cell-based; conditions: Homo sapiens;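 also: growth inhibition of human TGW cells, read out with a cell viability assay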
# Description: SANGER: Inhibition of human TGW cell growth in a cell viability assay.
# THP-1 = assay: cells; type: functional, cell-based; conditions: Homo sapiens;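 also: growth inhibition of THP-1 cells, read out via a cell viability assay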
# Description: SANGER: Inhibition of human THP-1 cell growth in a cell viability assay.
# TUR = assay: cells; type: functional, cell-based; conditions: Homo sapiens
# Description: SANGER: Inhibition of human TUR cell growth in a cell viability assay.
# YKG-1 = assay: cells; type: functional, cell-based; conditions: Homo sapiens
# Description: SANGER: Inhibition of human YKG-1 cell growth in a cell viability assay.
compound,measurement,setting,value
CC(C)=CC[C@@H](O)C1=CC(=O)c2c(O)ccc(O)c2C1=O [SHIKONIN],IC50,COR-L279,> 16 µM
same,IC50,Capan-2,1.01 µM
same,IC50,ChaGo-K-1,0.657 µM
same,IC50,D-336MG,1.75 µM
same,IC50,Daudi,3.44 µM
same,IC50,DoTc2-4510,0.263 µM
same,IC50,FaDu,1.77 µM
same,IC50,G-361,0.473 µM
same,IC50,GAMG,1.71 µM
same,IC50,H4,0.284 µM
same,IC50,HCC1806,1.27 µM
same,IC50,HCC38,0.787 µM
same,IC50,HSC-2,0.223 µM
same,IC50,HT1197,0.276 µM
same,IC50,HT-29,0.645 µM
same,IC50,Huh-7,1.96 µM
same,IC50,HuO9,1.66 µM
same,IC50,IST-SL2,0.2 µM
same,IC50,KYSE-180,1.01 µM
same,IC50,LC-1F,> 16 µM
same,IC50,LCLC-103H cell line,0.346 µM
same,IC50,LoVo,1.34 µM
same,IC50,M14,1.49 µM
same,IC50,MDA-MB-175-VII,2.05 µM
same,IC50,MEL-JUSO,0.54 µM
same,IC50,MKN-28,0.617 µM
same,IC50,MKN-7,2.21 µM
same,IC50,NB1,1.03 µM
same,IC50,NCI-H1417,0.816 µM
same,IC50,NCI-H1755,> 16 µM
same,IC50,NCI-H1793,> 16 µM
same,IC50,NCI-H2141,1.71 µM
same,IC50,NCI-H322M,> 16 µM
same,IC50,NCI-H441,15.8 µM
same,IC50,NUGC-3,0.765 µM
same,IC50,OPM-2,0.343 µM
same,IC50,Panc1005,0.416 µM
same,IC50,PC-3,0.859 µM
same,IC50,PFSK-1,> 16 µM
same,IC50,RT-112,0.0704 µM
same,IC50,Raji,0.631 µM
same,IC50,SAS,0.854 µM
same,IC50,SCC-9,0.197 µM
same,IC50,SK-LU-1,0.75 µM
same,IC50,SK-MEL3,2.64 µM
same,IC50,SR,0.141 µM
same,IC50,SW1783,1.07 µM
same,IC50,SW837,> 16 µM
same,IC50,T47D,0.223 µM
same,IC50,CWR22R,4.61 µM
same,IC50,5637,> 16 µM
same,IC50,A-431,0.107 µM
same,IC50,A673,1.22 µM
same,IC50,ACHN,0.146 µM
same,IC50,ASPC1,0.619 µM
same,IC50,BCPAP,0.923 µM
same,IC50,BHT-101,1.25 µM
same,IC50,C-33-A,0.913 µM
same,IC50,C3A,0.657 µM
same,IC50,CAL-148,0.677 µM
same,IC50,CAL-33,2 µM
same,IC50,TGW,0.522 µM
same,IC50,THP-1,0.891 µM
same,IC50,TUR,0.466 µM
same,IC50,YKG-1,0.229 µM
O=c1[nH]c2ccccc2n1C1CCN(Cc2ccc(-c3nc4cc5[nH]cnc5cc4nc3-c3ccccc3)cc2)CC1,IC50,COR-L279,1.68 µM
same,IC50,Capan-2,> 2.56 µM
same,IC50,ChaGo-K-1,> 2.56 µM
same,IC50,D-336MG,> 2.56 µM
same,IC50,Daudi,> 2.56 µM
same,IC50,DoTc2-4510,> 2.56 µM
same,IC50,FaDu,> 2.56 µM
same,IC50,G-361,> 2.56 µM
same,IC50,GAMG,> 2.56 µM
same,IC50,H4,> 2.56 µM
same,IC50,HCC1806,> 2.56 µM
same,IC50,HCC38,> 2.56 µM
same,IC50,HSC-2,> 2.56 µM
same,IC50,HT1197,> 2.56 µM
same,IC50,HT-29,2.43 µM
same,IC50,Huh-7,> 2.56 µM
same,IC50,HuO9,1.55 µM
same,IC50,IST-SL2,> 2.56 µM
same,IC50,KYSE-180,> 2.56 µM
same,IC50,LC-1F,> 2.56 µM
same,IC50,LCLC-103H cell line,> 2.56 µM
same,IC50,LoVo,> 2.56 µM
same,IC50,M14,> 2.56 µM
same,IC50,MDA-MB-175-VII,> 2.56 µM
same,IC50,MEL-JUSO,> 2.56 µM
same,IC50,MKN-28,> 2.56 µM
same,IC50,MKN-7,> 2.56 µM
same,IC50,NB1,> 2.56 µM
same,IC50,NCI-H1417,> 2.56 µM
same,IC50,NCI-H1755,1.06 µM
same,IC50,NCI-H1793,> 2.56 µM
same,IC50,NCI-H2141,> 2.56 µM
same,IC50,NCI-H322M,> 2.56 µM
same,IC50,NCI-H441,> 2.56 µM
same,IC50,NUGC-3,> 2.56 µM
same,IC50,OPM-2,> 2.56 µM
same,IC50,Panc1005,> 2.56 µM
same,IC50,PC-3,> 2.56 µM
same,IC50,PFSK-1,> 2.56 µM
same,IC50,RT-112,> 2.56 µM
same,IC50,Raji,> 2.56 µM
same,IC50,SAS,> 2.56 µM
same,IC50,SCC-9,> 2.56 µM
same,IC50,SK-LU-1,> 2.56 µM
same,IC50,SK-MEL3,> 2.56 µM
same,IC50,SR,> 2.56 µM
same,IC50,SW1783,> 2.56 µM
same,IC50,SW837,> 2.56 µM
same,IC50,T47D,0.516 µM
same,IC50,CWR22R,> 2.56 µM
same,IC50,5637,> 2.56 µM
same,IC50,A-431,> 2.56 µM
same,IC50,A673,> 2.56 µM
same,IC50,ACHN,> 2.56 µM
same,IC50,ASPC1,> 2.56 µM
same,IC50,BCPAP,> 2.56 µM
same,IC50,BHT-101,> 2.56 µM
same,IC50,C-33-A,> 2.56 µM
same,IC50,C3A,> 2.56 µM
same,IC50,CAL-148,> 2.56 µM
same,IC50,CAL-33,> 2.56 µM
same,IC50,TGW,> 2.56 µM
same,IC50,THP-1,> 2.56 µM
same,IC50,TUR,> 2.56 µM
same,IC50,YKG-1,1.02 µM
Fc1cc(-c2cc[nH]/c(=N/c3ccc(-n4cnc(N5CCOCC5)n4)cc3)n2)cc(N2CCOCC2)c1,IC50,COR-L279,1.13 µM
same,IC50,Capan-2,1.01 µM
same,IC50,ChaGo-K-1,1.37 µM
same,IC50,D-336MG,1.01 µM
same,IC50,Daudi,0.381 µM
same,IC50,DoTc2-4510,0.225 µM
same,IC50,FaDu,0.715 µM
same,IC50,G-361,0.266 µM
same,IC50,GAMG,1.34 µM
same,IC50,H4,0.439 µM
same,IC50,HCC1806,0.637 µM
same,IC50,HCC38,1.73 µM
same,IC50,HSC-2,0.223 µM
same,IC50,HT1197,0.611 µM
same,IC50,HT-29,0.358 µM
same,IC50,Huh-7,0.756 µM
same,IC50,HuO9,0.638 µM
same,IC50,IST-SL2,0.457 µM
same,IC50,KYSE-180,0.272 µM
same,IC50,LC-1F,2.53 µM
same,IC50,LCLC-103H cell line,0.135 µM
same,IC50,LoVo,0.437 µM
same,IC50,M14,0.342 µM
same,IC50,MDA-MB-175-VII,2.96 µM
same,IC50,MEL-JUSO,0.286 µM
same,IC50,MKN-28,0.301 µM
same,IC50,MKN-7,3.14 µM
same,IC50,NB1,0.447 µM
same,IC50,NCI-H1417,> 5.12 µM
same,IC50,NCI-H1755,0.349 µM
same,IC50,NCI-H1793,1.21 µM
same,IC50,NCI-H2141,> 5.12 µM
same,IC50,NCI-H322M,> 5.12 µM
same,IC50,NCI-H441,> 5.12 µM
same,IC50,NUGC-3,0.687 µM
same,IC50,OPM-2,0.514 µM
same,IC50,Panc1005,0.46 µM
same,IC50,PC-3,4.55 µM
same,IC50,PFSK-1,0.811 µM
same,IC50,RT-112,0.337 µM
same,IC50,Raji,0.495 µM
same,IC50,SAS,1.94 µM
same,IC50,SCC-9,0.218 µM
same,IC50,SK-LU-1,0.987 µM
same,IC50,SK-MEL3,0.877 µM
same,IC50,SR,0.122 µM
same,IC50,SW1783,0.428 µM
same,IC50,SW837,2.95 µM
same,IC50,T47D,> 5.12 µM
same,IC50,CWR22R,1.01 µM
same,IC50,5637,5.04 µM
same,IC50,A-431,0.249 µM
same,IC50,A673,1.12 µM
same,IC50,ACHN,0.886 µM
same,IC50,ASPC1,3.8 µM
same,IC50,BCPAP,0.932 µM
same,IC50,BHT-101,0.667 µM
same,IC50,C-33-A,0.253 µM
same,IC50,C3A,0.566 µM
same,IC50,CAL-148,4.94 µM
same,IC50,CAL-33,0.826 µM
same,IC50,TGW,3.47 µM
same,IC50,THP-1,1.05 µM
same,IC50,TUR,0.363 µM
same,IC50,YKG-1,0.724 µM
